Test results taken from US20230047766A1, “MEDICAL DEVICE, THERAPEUTIC METHOD, AND DIAGNOSTIC METHODS FOR THE TREATMENT AND PREVENTION OF VASOSPASM” (Sylvian Inc., priority 2020, published 2023).
Each block holds one molecule with its values, some of them ahead of it.

Assays:
[1] = tested on: ET-1; settings: intravenous; clinical trial databases; cited from earlier work
[2] = tested on: dogs; test: intrathecal (IT) administration to dogs: Evans blue distribution and maximum dose volume of saline for 30 minutes; assay type: in vivo; settings: anesthetized dogs, approx. 1 mL of 0.5% solution, catheter near the bregma
Protocol: A second experiment was conducted to establish a procedure of IT administration to dogs to determine the maximum dose volume by IT administration of saline for 30 minutes. An approximately 1 mL of 0.5% Evans blue solution was administered to 4 anesthetized dogs via a catheter placed in the subarachnoid space near the bregma. After the administration, the animals were necropsied, and the CNS was macroscopically observed to verify the distribution of the Evans blue solution. In addition, 8 or 4 mL of saline, which is considered to be respectively approximately […] of a total volume of CSF, was administered to 6 unanesthetized dogs under a restrained condition. Saline was administered during the dosing and until 1 hour after dosing. The animals were necropsied on the next day of dosing and the CNS were macroscopically observed.

[3] = tested on: rats; test: intrathecal (IT) administration to rats: Evans blue distribution and maximum dose volume of saline for 30 minutes; settings: rat, in vivo
Protocol: A first experiment was conducted to establish a procedure of intrathecal (IT) administration to rats to determine the maximum dose volume by IT administration of saline for 30 minutes. An approximately 30 μL of 1.0% Evans blue solution was administered to 6 anesthetized rats via a catheter placed in the subarachnoid space in the cisternal magna. After administration, the animals were necropsied, and the central nervous system (CNS) including the brain and cervical spinal cord were macroscopically observed to verify the distribution of Evans blue solution. In addition, 0.125, 0.25, 0.5, and 1.0 mL of saline, which is considered to be respectively approximately ½, equal, 2-fold, and 4-fold of a total volume of CSF in rats, was administered to 1 or 3 unanesthetized rats per dose volume. Saline was administered for 30 minutes using an infusion pump. Clinical signs were observed during the dosing and until 1 hour after dosing. The animals were necropsied on the next day of dosing and the CNS were macroscopically observed.

[4] = solubility of trehalose in water (saturated trehalose solution); assay type: physicochemical; settings: 20° C.
Protocol: FIGS. 4A-4G are graphs showing simulations of trehalose concentrations in human CSF to determine clinical dose regimens. The simulations assume that a CSF volume of a human is approximately 140 mL and that the CSF exchange rate is approximately […]. […] In the simulations, the trehalose is administered by a bolus injection, and is equally distributed in the CSF immediately after the injection. For the simulations below, a saturated trehalose solution was prepared by dissolving 68.9 g of trehalose per 100 g of water at 20° C.
FIG. 4A is a graph 400 showing a simulation of trehalose concentration 410 in human CSF to determine a clinical dose regimen. In this example simulation, 9.8 g of trehalose was estimated to be required to achieve a 7 wt % trehalose concentration in the CSF immediately after injection.

[5] = tested on: vasospasm associated with SAH; settings: animal studies; high concentrations (~7%) in cranial ventricles; cited from earlier work

Compound: COc1ccccc1Oc1c(NS(=O)(=O)c2ccc(C)cn2)nc(-c2ccnc(-c3nnn[nH]3)c2)nc1OCCO [Clozasentan]
- effect on vasospasm [1]: reversal of vasospasms in large arteries

Compound: Cc1cc(-c2ccc(/N=N/c3ccc4c(S(=O)(=O)O)cc(S(=O)(=O)O)c(N)c4c3O)c(C)c2)ccc1/N=N/c1ccc2c(S(=O)(=O)O)cc(S(=O)(=O)O)c(N)c2c1O [Evans blue solution, Evans blue]
- distribution after IT administration (macroscopic observation) [2]: distributed to the subarachnoid space of the whole cerebral cortex
- distribution after IT administration (macroscopic observation) [3]: distributed to the subarachnoid space of the cisterna magna, the bottom of the brain, and the cervical spinal cord in all animals

- trehalose dissolved for a saturated solution [4]: 68.9 g per 100 g of water
Compound: OC[C@H]1O[C@H](O[C@H]2O[C@H](CO)[C@@H](O)[C@H](O)[C@H]2O)[C@H](O)[C@@H](O)[C@@H]1O [trehalose]
- effect on inflammatory cascade and vasospasm associated with SAH [5]: significant inhibition of the inflammatory cascade and vasospasm
